According to paper PMC5366925, “Novel 1, 4-dihydropyridines for L-type calcium channel as antagonists for cadmium toxicity” (Scientific Reports, 2017):
≈ marks a conversion by molar mass, not a printed value.

Tests used:
[1] = tested on: A7r5 cells (containing L-type Ca2+ channels); test: Intracellular Ca2+ measurement (Fluo-4 NW), CaCl2/KCl-induced increase; type: cell-based, rat; conditions: for IC50: Rattus norvegicus, A7r5 cells, 1.5 mM CaCl2 and 50 mM KCl, mean ± SD, unit printed only in abstract, not in Table 2, read-out: Calcium overload-preventing activity (IC50), A7r5; for fold higher activity in A7r5 cells than in SH-SY5Y cells: A7r5 vs SH-SY5Y IC50
Description: (§1) The A7r5 (rat aorta smooth muscle cells) and SH-SY5Y (human neuroblastoma cell line) were obtained from the National Centre for Cell Science, Pune, India. The cells were grown at 37.5 °C in a humidified atmosphere with 5% CO2/95% air in Dulbecco’s modified Eagle medium (DMEM), restraining 2 mM of glutamine and supplemented with 10% fetal bovine serum. Once a week the cells were passaged using 0.25% trypsin, 0.53 mM EDTA (Ethylene diamine tetra acetic acid) solution and grown in […] plastic culture flasks until confluence.
(§2) In the experiment, SH-SY5Y cells were plated in 96-well plates at a density of 30,000 cells per well and incubated for 24 h. A7r5 cells were seeded into 96-well plates at a density of 10,000 cells per well and incubated for 72 h. the intracellular [Ca^2+]i concentration changes were studied using the Fluo-4 NW Calcium Assay Kit (Invitrogen, Sweden), as per the manufacturer’s instructions. Both SH-SY5Y and A7r5 cells were loaded with […] for 45 min. Then, the cells were pre-incubated in the dark for 15 min with the tested compounds at concentrations from […]. The compounds were dissolved in distilled water. Application of carbachol (100 nM) to Fura-4 loaded SH-SY5Y cells was used to stimulate changes in the intracellular [Ca^2+]i concentration, whereas A7r5 cells were treated with 1.5 mM CaCl2 and KCl (50 mM) for 5 min to induce an increase in the [Ca^2+] ion concentration. The intracellular [Ca^2+] ion concentration was measured using the fluorescence spectrophotometer’s (Thermo Ascient, Hyderabad) settings appropriate for an excitation at 494 nm and an emission at 516 nm. Amlodipine was used as the positive control. IC50 values as mean ± SD were calculated using Graph Pad Prism 5.0 software.

[2] = tested on: SH-SY5Y cells (containing L- and N-type Ca2+ channels); test: Intracellular Ca2+ measurement (Fluo-4 NW), carbachol-induced increase; type: cell-based; conditions: Homo sapiens, carbachol 100 nM, mean ± SD, unit printed only in abstract, not in Table 2, read-out: Calcium overload-preventing activity (IC50), SH-SY5Y
Description: as §1, §2

[3] = tested on: A7r5 cells; test: Cadmium cytotoxicity study (LDH release); type: cell-based, rat; conditions: for fold decrease in cell lethality (ratio of LC50 vs CdCl2 alone): then CdCl2 for 4 h
Description: The A7r5 cell line was obtained from National Center for Cell Sciences, Pune, India. The cells were grown in Dulbecco’s Modified Eagles Medium (DMEM) supplemented with 5% fetal bovine serum at 37 °C in an atmosphere of 90% air/10% CO2. For determinations of cell viability, A7r5 cells were removed from stock flasks by mild digestion with trypsin-EDTA solution and the stock cultures were developed in 25 cm^2 culture flasks and all trials were done in 96 micro titer plates. After plating, the cells were allowed to grow to confluence for 7–10 days before use.
The rat aorta smooth muscle A7r5 cells received one of the four treatments following overnight incubation. The first group received CdCl2 at 1, 10, 20, 30, 40, 50 μM prepared in complete culture for 4 h incubation. The second group received pretreatment with 200 μM AD for 1 h followed by the addition of 1, 10, 20, 30, 40, 50 μM CdCl2 for 4 h incubation. The third group received pretreatment with 200 μM compound 5a for 1 h followed by the addition of 1, 10, 20, 30, 40, 50 μM CdCl2 for 4 h incubation. The fourth group received pretreatment with 200 μM compound 5a for 1 h followed by the addition of 1, 10, 20, 30, 40, 50 μM CdCl2 for 4 h incubation. The CdCl2 different concentrations used in this test were chosen based on preliminary studies to identify concentrations which ranged from producing no effects to cytolethality. A short term exposure (4 h) was chosen to evaluate the effects of metallothionein induction. The cell viability was assessed by measurement of (Lactate Dehydrogenase) LDH released into the medium. LDH release was expressed as a percent of the maximum after lysis of cells with TritonX-100.

[4] = tested on: mitochondrial functioning; test: Effect on mitochondrial functioning; conditions: at concentrations close to those demonstrating L-type calcium channel blocking activity

Compound	IC50 [1] [µg/mL]	IC50 [2] [µg/mL]	fold higher activity in A7r5 cells than in SH-SY5Y cells [1]	fold decrease in cell lethality (ratio of LC50 vs CdCl2 alone) ([3]; 200 μM for 1 h pretreatment) [fold]	effect on mitochondrial functioning [4]	loss of cell viability ablated by pretreatment ([3]; 200 μM for 1 h pretreatment, 20 μM CdCl2) [%]	effect on LDH leakage ([3]; 1 h pretreatment with 200 μM, compound alone)	CC50 ([3]; 4 h exposure, CdCl2 alone, read-out: LC50 (CdCl2 induced cell death)) [µM]
CCOC(=O)NCCOCC1=C(C(=O)OCC)C(c2ccccc2Cl)C(C(=O)OC)=CN1 (centres unmarked) [3d]	4.25 ± 0.25 (≈ 9.1 µM)	14 ± 0.39 (≈ 30 µM)						
CCOC(=O)C1=C(COCCNC(=O)OCC(C)C)NC=C(C(=O)OC)C1c1ccccc1Cl (centres unmarked) [3e]	8.35 ± 0.52 (≈ 16.9 µM)	40 ± 0.43 (≈ 80.8 µM)						
CCOC(=O)C1=C(COCCNS(=O)(=O)c2ccc([N+](=O)[O-])cc2)NC=C(C(=O)OC)C1c1ccccc1Cl (centres unmarked) [5a]	0.18 ± 0.02 (≈ 0.31 µM)	8 ± 0.23 (≈ 13.8 µM)	at least 10 fold	2.5	did not affect mitochondrial functioning			
CCOC(=O)C1=C(COCCNS(=O)(=O)c2ccc(Br)cc2)NC=C(C(=O)OC)C1c1ccccc1Cl (centres unmarked) [5b]	0.52 ± 0.48 (≈ 0.847 µM)	20 ± 0.52 (≈ 32.6 µM)						
CCOC(=O)C1=C(COCCNS(=O)(=O)c2ccc(Cl)c([N+](=O)[O-])c2)NC=C(C(=O)OC)C1c1ccccc1Cl (centres unmarked) [5c]	0.43 ± 0.52 (≈ 0.7 µM)	15 ± 0.53 (≈ 24.4 µM)						
CCOC(=O)C1=C(COCCNS(=O)(=O)c2ccc(F)cc2)NC=C(C(=O)OC)C1c1ccccc1Cl (centres unmarked) [5d]	0.59 ± 0.61 (≈ 1.07 µM)	21 ± 0.49 (≈ 38 µM)						
CCOC(=O)C1=C(COCCNS(=O)(=O)C(F)(F)F)NC=C(C(=O)OC)C1c1ccccc1Cl (centres unmarked) [5e]	0.25 ± 0.63 (≈ 0.474 µM)	10 ± 0.18 (≈ 19 µM)	at least 10 fold	2.3	did not affect mitochondrial functioning			
CCOC(=O)C1=C(COCCN)NC(C)=C(C(=O)OC)C1c1ccccc1Cl (centres unmarked) [Amlodipine, reference compound]	0.45 ± 0.52 (≈ 1.1 µM)	11 ± 0.61 (≈ 26.9 µM)		2.0		75	did not affect LDH leakage	
[Cl][Cd][Cl] [CdCl2]								30.2 ± 0.82
